In patent US20260200943A1, “COMPOUNDS FOR TREATING CANCER” (Genesis Therapeutics, Inc., priority 2022, published 2026):
Where two headings read alike, the source gives them in different places.

Assays:
[1] = from Cn1ncc(S(=O)(=O)N2CCC(N)CC2)c1C(=O)NCCCCCOc1nc(Cl)ncc1Br; snar bond; 19-membered ring; K2CO3; DMSO; 6.02 mM; 110.0 °C
CDK2/CyclinA2 [2] = biological target: T1, CDK2/CyclinA2 (Homo sapiens, UniProt P24941); experiment: CDK2/Cyclin A2 Mobility Shift Assay (Caliper, Table B); format: biochemical; settings: for Ki: Caliper mobility shift, 10xKm, read-out: CDK2/CCNA2 Caliper 10xKm Ki: Average Ki
T1 construct: Wild-type, full length CDK2 in complex with wildtype, full length CyclinA2: Carna Cat #04-103; purchased Carna 04-103
Description: 10 nL of 2000× compound in 100% DMSO is added to a 384-well polypropylene assay plate. 15 μL of 1.3×CDK2/A2 and 1.3× fluorescent substrate (Wild-type, full length CDK2 in complex with wildtype, full length CyclinA2: Carna Cat #04-103 and FL-Peptide 18: PerkinElmer Cat #760362) diluted in kinase buffer (50 mM Hepes, 0.01% Brij-35, 10 mM MgCl2, 1 mM EGTA, 0.05% BSA, and 2 mM DTT) is added to the plates on top of the compound, mixed, and pre-incubated for 30 minutes at room temperature. The fluorescently labeled peptide substrate is phosphorylated by CDK2/A2 upon ATP hydrolysis. Following the incubation, 5 μL of 4×ATP diluted in kinase buffer is added to the plate to initiate the reaction. Following the 30-minute incubation, the reaction is stopped by adding 75 μL of stopping buffer containing 0.5 M EDTA.
(§1) The assay plate is then read on a Lab Chip EZ Reader which separates the fluorescently labeled substrate and product peptides through a mobility difference. The phosphorylation of the substrate imparts a negative charge, which allows differences in separation as both are pulled through the microfluidic chip. The ratio of substrate and product values are used to generate percent conversion. These raw percent conversion values are normalized to calculate percent inhibition, which are fit to a four-parameter logistic curve and IC50 values are calculated. IC50 values are converted to Ki through using substrate and Km^app values, and the Cheng-Prusoff equation.

CDK9/CyclinT1 [3] = biological target: T2, CDK9/CyclinT1 (Homo sapiens, UniProt P50750); experiment: CDK9/CyclinT1 Mobility Shift Assay (Caliper, Table B); format: biochemical; set-up: Wild-type, full length CDK9 in complex with wildtype, CyclinT1 (1-259): Biortus Cat #BP480/792/691; purchased Biortus BP480/792/691; settings: read-out: CDK9/Cyclin T1 Caliper Ki: Average Ki
Description: 10 nL of 2000× compound in 100% DMSO is added to a 384-well polypropylene assay plate. 15 μL of 1.3×CDK9/T1 and 1.3× fluorescent substrate (Wild-type, full length CDK9 in complex with wildtype, CyclinT1 (1-259): Biortus Cat #BP480/792/691 and FL-Peptide 34: PerkinElmer Cat #760643) diluted in kinase buffer (50 mM Hepes, 0.01% Brij-35, 10 mM MgCl2, 1 mM EGTA, 0.05% BSA, and 2 mM DTT) is added to the plates on top of the compound, mixed, and pre-incubated for 30 minutes at room temperature. The fluorescently labeled peptide substrate is phosphorylated by CDK9/T1 upon ATP hydrolysis. Following the incubation, 5 μL of 4×ATP diluted in kinase buffer is added to the plate to initiate the reaction. Following the 30-minute incubation, the reaction is stopped by adding 75 μL of stopping buffer containing 0.5 M EDTA.
as §1, with “Ki” for “Ki through”, “substrate, Kmapp” for “substrate and Km^app”
Target sequence in this assay (P50750 whole entry): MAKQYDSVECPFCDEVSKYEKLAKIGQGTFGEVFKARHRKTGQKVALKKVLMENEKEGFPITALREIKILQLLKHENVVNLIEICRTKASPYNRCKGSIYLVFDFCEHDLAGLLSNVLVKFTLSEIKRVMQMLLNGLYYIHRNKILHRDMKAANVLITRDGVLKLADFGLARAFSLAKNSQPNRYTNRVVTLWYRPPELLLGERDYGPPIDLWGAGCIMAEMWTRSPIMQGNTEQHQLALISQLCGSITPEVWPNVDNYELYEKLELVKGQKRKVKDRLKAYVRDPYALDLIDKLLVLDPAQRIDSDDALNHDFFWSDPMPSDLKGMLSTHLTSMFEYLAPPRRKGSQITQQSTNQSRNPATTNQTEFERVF
Target sequence in this assay (O60563 1-259 partner limits assumed): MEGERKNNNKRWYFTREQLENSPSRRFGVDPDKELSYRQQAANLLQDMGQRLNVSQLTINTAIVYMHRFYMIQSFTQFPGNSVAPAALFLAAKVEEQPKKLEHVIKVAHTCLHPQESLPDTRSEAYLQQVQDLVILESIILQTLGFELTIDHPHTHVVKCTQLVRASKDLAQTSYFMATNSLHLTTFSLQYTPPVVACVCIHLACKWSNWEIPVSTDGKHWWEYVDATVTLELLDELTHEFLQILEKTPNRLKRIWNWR

CDK1/CyclinB1 [4] = biological target: T3, CDK1/CyclinB1 (Homo sapiens, UniProt P06493); experiment: CDK1/Cyclin B1 Mobility Shift Assay (Caliper, Table B); format: biochemical; settings: read-out: CDK1/CCNB1 Caliper Ki: Average Ki
T3 construct: Wild-type, full length CDK1 in complex with wildtype, full length CyclinB1: Carna Cat #04-102; purchased Carna 04-102
T3 sequence (P06493 whole entry): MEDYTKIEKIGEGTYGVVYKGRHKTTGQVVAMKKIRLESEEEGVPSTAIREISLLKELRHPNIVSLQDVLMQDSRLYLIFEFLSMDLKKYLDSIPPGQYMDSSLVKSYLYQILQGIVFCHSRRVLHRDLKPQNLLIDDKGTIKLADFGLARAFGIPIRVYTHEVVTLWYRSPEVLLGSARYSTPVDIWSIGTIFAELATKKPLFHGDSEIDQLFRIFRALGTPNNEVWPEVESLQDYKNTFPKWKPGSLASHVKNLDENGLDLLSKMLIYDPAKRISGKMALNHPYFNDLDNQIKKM
T3 sequence (P14635 whole entry partner): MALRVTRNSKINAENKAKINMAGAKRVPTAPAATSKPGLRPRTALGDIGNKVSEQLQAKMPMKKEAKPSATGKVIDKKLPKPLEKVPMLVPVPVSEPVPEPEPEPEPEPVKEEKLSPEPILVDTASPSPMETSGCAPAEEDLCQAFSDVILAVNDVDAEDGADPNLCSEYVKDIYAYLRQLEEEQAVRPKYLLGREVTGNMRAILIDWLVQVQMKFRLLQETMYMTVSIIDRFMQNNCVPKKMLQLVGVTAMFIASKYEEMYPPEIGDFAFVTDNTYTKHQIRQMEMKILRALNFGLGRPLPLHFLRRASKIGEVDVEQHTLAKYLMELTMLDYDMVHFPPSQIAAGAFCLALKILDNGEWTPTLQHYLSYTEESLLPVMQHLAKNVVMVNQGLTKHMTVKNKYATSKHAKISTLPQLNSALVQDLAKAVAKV
Description: 10 nL of 2000× compound in 100% DMSO is added to a 384-well polypropylene assay plate. 15 μL of 1.3×CDK1/B1 and 1.3× fluorescent substrate (Wild-type, full length CDK1 in complex with wildtype, full length CyclinB1: Carna Cat #04-102 and FL-Peptide 29: PerkinElmer Cat #760429) diluted in kinase buffer (50 mM Hepes, 0.01% Brij-35, 10 mM MgCl2, 1 mM EGTA, 0.05% BSA, and 2 mM DTT) is added to the plates on top of the compound, mixed, and pre-incubated for 30 minutes at room temperature. The fluorescently labeled peptide substrate is phosphorylated by CDK1/B1 upon ATP hydrolysis. Following the incubation, 5 μL of 4×ATP diluted in kinase buffer is added to the plate to initiate the reaction. Following the 30-minute incubation, the reaction is stopped by adding 75 μL of stopping buffer containing 0.5 M EDTA.
as §1, with “Ki” for “Ki through”, “substrate, Kmapp” for “substrate and Km^app”

CDK2/CyclinA2 [5] = biological target: T1, CDK2/CyclinA2; experiment: CDK2/CyclinA2 ChEF Assay (Table A); format: biochemical
Description: 500 nL of 50× compound in 100% DMSO is added to a 384-well low volume, white assay plate. 19.5 μL of 1.3×CDK2/CyclinA2 (Wild-type, full length CDK2 in complex with wildtype, full length CyclinA2: Carna Cat #04-103 diluted in assay buffer (50 mM Hepes, 0.01% Brij-35, 10 mM MgCl2, 0.5 mM EGTA, 1% Glycerol, and 1.2 mM DTT) is added to the plates on top of the compound and pre-incubated for 30 minutes at room temperature. Following the incubation, 5 μL of 5×Sox-chromophore (CSox) labeled peptide substrate (AQT0255, AssayQuant) & ATP diluted in assay buffer is added to the plate to initiate the reaction. The assay is incubated at room temperature for 45 min after initiation. The CSox peptide substrate is phosphorylated by CDK2/A2 upon ATP hydrolysis.
(§2) The fluorescent intensity measurement of the assay plate for all assays described above is read on a microplate reader once the assay is initiated and again at the completion of the assay. Phosphorylation of the CSox-based peptide substrate sensor results in an immediate increase in fluorescence. These raw fluorescence intensity values are normalized to calculate percent inhibition, which are fit to a four-parameter logistic curve and IC50 values are calculated. IC50 values are converted to Ki using substrate, KM^app values, and the Cheng-Prusoff equation.

CDK1/CyclinB1 [6] = biological target: T3, CDK1/CyclinB1; experiment: CDK1/CyclinB1 ChEF Assay (Table A); format: biochemical; settings: read-out: CDK1/CCNB1 ChEF Ki: Average Ki;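 further: Ki reported in nM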
Description: 500 nL of 50× compound in 100% DMSO is added to a 384-well low volume, white assay plate. 19.5 μL of 1.3×CDK1/CyclinB1 (Wild-type, full length CDK1 in complex with wildtype, full length CyclinB1: Carna Cat #04-102) diluted in assay buffer (50 mM Hepes, 0.01% Brij-35, 10 mM MgCl2, 0.5 mM EGTA, 1% Glycerol, and 1.2 mM DTT) is added to the plates on top of the compound and pre-incubated for 30 minutes at room temperature. Following the incubation, 5 μL of 5×Sox-chromophore (CSox) labeled peptide substrate (AQT0297, AssayQuant) & ATP diluted in assay buffer is added to the plate to initiate the reaction. The assay is incubated at room temperature for 30 min after initiation. The CSox peptide substrate is phosphorylated by CDK1/B1 upon ATP hydrolysis.
as §2

CDK9/CyclinT1 [7] = biological target: T2, CDK9/CyclinT1; experiment: CDK9/CyclinT1 ChEF Assay (Table A); format: biochemical; set-up: Wild-type, full length CDK9 in complex with wildtype, full length CyclinT1: Invitrogen Cat #PV4131; purchased Invitrogen PV4131; settings: 10xKm, read-out: CDK9/CCNT1 ChEF 10xKm Ki: Average Ki
Description: 500 nL of 50× compound in 100% DMSO is added to a 384-well low volume, white assay plate. 19.5 μL of 1.3×CDK9/CyclinT1 (Wild-type, full length CDK9 in complex with wildtype, full length CyclinT1: Invitrogen Cat #PV4131) diluted in assay buffer (50 mM Hepes, 0.01% Brij-35, 10 mM MgCl2, 0.5 mM EGTA, 1% Glycerol, and 1.2 mM DTT) is added to the plates on top of the compound and pre-incubated for 30 minutes at room temperature. Following the incubation, 5 μL of 5×Sox-chromophore (CSox) labeled peptide substrate (AQT0449, AssayQuant) & ATP diluted in assay buffer is added to the plate to initiate the reaction. The assay is incubated at room temperature for 120 min after initiation. The CSox peptide substrate is phosphorylated by CDK9/T1 upon ATP hydrolysis.
as §2
Target sequence in this assay (P50750 whole entry): as the sequence (P50750 whole entry) above
Target sequence in this assay (O60563 whole entry partner): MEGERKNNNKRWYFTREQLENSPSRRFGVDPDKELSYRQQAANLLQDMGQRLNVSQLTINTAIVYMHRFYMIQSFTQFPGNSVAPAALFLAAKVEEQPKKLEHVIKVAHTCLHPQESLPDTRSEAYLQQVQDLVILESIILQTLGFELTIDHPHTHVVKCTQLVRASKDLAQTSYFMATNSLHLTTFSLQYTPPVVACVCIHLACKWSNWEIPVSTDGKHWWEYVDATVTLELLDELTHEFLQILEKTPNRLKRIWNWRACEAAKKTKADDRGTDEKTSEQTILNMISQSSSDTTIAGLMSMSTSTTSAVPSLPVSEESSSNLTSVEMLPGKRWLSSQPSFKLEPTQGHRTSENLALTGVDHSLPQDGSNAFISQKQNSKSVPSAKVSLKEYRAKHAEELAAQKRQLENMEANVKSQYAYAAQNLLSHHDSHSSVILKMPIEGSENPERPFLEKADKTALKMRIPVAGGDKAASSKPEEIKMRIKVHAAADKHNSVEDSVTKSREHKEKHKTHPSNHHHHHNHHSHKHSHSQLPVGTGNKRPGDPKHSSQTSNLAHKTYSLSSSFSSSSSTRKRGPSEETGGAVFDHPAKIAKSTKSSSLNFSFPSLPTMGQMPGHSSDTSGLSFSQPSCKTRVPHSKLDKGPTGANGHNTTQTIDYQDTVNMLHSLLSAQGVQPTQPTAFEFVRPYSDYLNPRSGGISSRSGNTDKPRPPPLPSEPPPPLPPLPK

Ki (CDK2/CyclinA2 [2])	CDK2/CCNA2 Caliper 10xKm Ki: CDK2/A2 Selectivity over CDK1/B1 (CDK2/CyclinA2 [2])	CDK2/CCNA2 Caliper 10xKm Ki: CDK2/A2 Selectivity over CDK9 (CDK2/CyclinA2 [2])	Ki (CDK1/CyclinB1 [4])	SMILES	other results
–	–	–	–	Cn1ncc2c1C(=O)NCCCCCOc1nc(ncc1Cl)NC1CCN(CC1)S2(=O)=O	ring closure, isolated yield [1]: 33%
25 to 100 nM	C (C<5)	B (5≤B<10)	≥ 100 nM	O=C1NCCCCCCCOc2cccc(n2)Nc2ncc(cn2)[C@@H]2CC[C@@H](C2)O1 [Compound 111]	Ki (CDK9/CyclinT1 [3]): ≥ 100 nM
–	–	–	–	CC(C)(C)n1nc2cc1[C@H]1CC[C@H](C1)OC(=O)NCCCCCCNS(=O)(=O)C1CCC(CC1)N2	ring closure, yield of all isomers (from CC(C)(C)OC(=O)NCCCCCCNS(=O)(=O)C1CCC(Nc2cc([C@H]3CC[C@@H](OC(=O)Oc4ccc([N+](=O)[O-])cc4)C3)n(C(C)(C)C)n2)CC1, other bond, DIPEA, DCE, 4.26 mM, 25.0 °C, 18.0 h, 2 steps): 50%
–	–	–	–	CC(C)(C)n1nc2cc1[C@H]1CC[C@H](C1)OC(=O)NCCOCCNS(=O)(=O)c1ccc(c(F)c1)N2	ring closure, yield of all isomers (from CC(C)(C)OC(=O)NCCOCCNS(=O)(=O)c1ccc(Nc2cc([C@H]3CC[C@@H](OC(=O)Oc4ccc([N+](=O)[O-])cc4)C3)n(C(C)(C)C)n2)c(F)c1, other bond, DIPEA, DCE, 5.25 mM, 25.0 °C, 18.0 h, 2 steps): 62.3%
–	–	–	–	O=C1NCCCCn2cc(cn2)S(=O)(=O)N2CCC(CC2)Nc2cc([nH]n2)[C@H]2CC[C@H](C2)O1 [Compound 94, (11S,13R,24Z,64E)-21H,61H-13-oxa-5-thia-3,11-diaza-4(4,1)-piperidina-2(5,3),6(4,1)-dipyrazola-1(1,3)-cyclopentanacyclotridecaphan-12-one 5,5-dioxide]	Ki (CDK2/CyclinA2 [5]; 10xKm, read-out: CDK2/CCNA2 ChEF 10xKm Ki: Average Ki): 25 to 100 nM; CDK2/CCNA2 ChEF 10xKm Ki: CDK2/A2 Selectivity over CDK9/T1 (CDK2/CyclinA2 [5]; selectivity over CDK9/T1): A (A>10); Ki (CDK1/CyclinB1 [6]): ≥ 100 nM; Ki (CDK9/CyclinT1 [7]): 1 to 25 nM; Ki (CDK9/CyclinT1 [3]): 25 to 100 nM
–	–	–	–	Cn1ncc2c1C(=O)NCCCCCOc1nc(ncc1Br)NC1CCN(CC1)S2(=O)=O	ring closure, yield of all isomers (from Cn1ncc(S(=O)(=O)N2CCC(N)CC2)c1C(=O)NCCCCCOc1nc(Cl)ncc1Br, snar bond, K2CO3, DMSO, 6.02 mM, 110.0 °C, 2.0 h): 33%
–	–	–	–	NS(=O)(=O)c1ccc2cc1NCCCCCNC(=O)OC1CCC(C1)c1cnc(nc1)N2 (stereo not drawn)	ring closure, yield of all isomers (from CC(C)(C)OC(=O)NCCCCCNc1cc(Nc2ncc(C3CCC(OC(=O)Oc4ccc([N+](=O)[O-])cc4)C3)cn2)ccc1S(=O)(=O)NC(=O)OC(C)(C)C, other bond, DIEA, DMF, 75.0 mM, 50.0 °C, 3.0 h, 2 steps): 39.5%
≥ 100 nM	B (5≤B<10)	B (5≤B<10)	≥ 100 nM	O=C1NCCCCCOc2cccc(n2)Nc2ncc(cn2)[C@@H]2CC[C@@H](C2)O1 [Compound 113]	–
≥ 100 nM	B (5≤B<10)	C (C<5)	≥ 100 nM	O=C1NCCCCCCNS(=O)(=O)c2ccc(cc2)Nc2ncc(cn2)[C@@H]2CC[C@@H](C2)O1 [Compound 115]	–
–	–	–	–	NS(=O)(=O)c1ccc2cc1OCCCCCNC(=O)OC1CCC(C1)c1cnc(nc1)N2 (stereo not drawn)	ring closure, yield of all isomers (from NCCCCCOc1cc(Nc2ncc(C3CCC(OC(=O)Oc4ccc([N+](=O)[O-])cc4)C3)cn2)ccc1S(N)(=O)=O, other bond, DIEA, DMF, 41.5 mM, 50.0 °C, 2.0 h): 11.1%
25 to 100 nM	B (5≤B<10)	B (5≤B<10)	≥ 100 nM	O=C1NCCCCOc2cccc(n2)Nc2ncc(cn2)[C@@H]2CC[C@@H](C2)O1 [Compound 114]	–
25 to 100 nM	B (5≤B<10)	B (5≤B<10)	≥ 100 nM	O=C1NCCCCCCOc2cccc(n2)Nc2ncc(cn2)[C@@H]2CC[C@@H](C2)O1 [Compound 112]	Ki (CDK9/CyclinT1 [3]): ≥ 100 nM
